We go through two compounds from US20080194493A1, “Compositions Containing D-Carnosine” (priority 2004, published 2008).

A short description of data set [1]: In vivo acute study, oral administration to Wistar rats. To be noted: 570 mg/kg.
Description: (§1) An LC-MS/MS technique, validated in the 5-250 μM range, with detection limits of 50-20 picomoles, was set-up for this purpose.
(§2) In the in vivo acute studies, D- and L-carnosine were administered orally to Wistar rats (320 g±25 g) in the form of an aqueous solution at pH 7.4 (HCl) at the dose of 570 mg/kg.
The nature of data set [2]: Chronic treatment with the diet water in obese-Zucker rats: levels in plasma, urine and kidney.
Description: The stability of L- and D-carnosine was compared in human plasma and serum in vitro, and in vivo in the rat (acute and chronic treatment). An LC-MS/MS technique, validated in the 5-250 μM range, with detection limits of 50-20 picomoles, was set-up for this purpose.
In chronic treatment, D- and L-camosine were administered with the diet water for 12 weeks at a dose of 30 mg/Kg. The experiment was carried out by using obese-Zucker rats (Charles River), an animal model of metabolic disorders, characterized by hyperinsulinemia, insulin resistance, obesity, hypertriglyceridemia, hypercholesterolemia, and by an increased formation of lipid derived carbonyls, protein carbonylation and appearance of carbonyl-dependent degenerative process such as nephropathy and vascular dysfunction, (Metz T O, Alderson N L, Chachich M E, Thorpe S R, Baynes J W, Pyridoxamine traps intermediates in lipid peroxidation reactions in vivo: evidence on the role of lipids in chemical modification of protein and development of diabetic complications, J Biol Chem. 2003 October 24;278(43):42012-9.
Data set [3] can be described thus: In vitro stability in human plasma (LC-MS/MS). Conditions: after 6 hours incubation at 37° C., in the presence and absence of cadmium chloride.
The nature of data set [4]: Reactivity towards HNE in homogeneous solution (aldehyde consumption by liquid chromatography). Conditions: for inhibited HNE: HNE 10 μm in 10 mM phosphate buffer, molar ratios 1:10 and 1:20. It is filed as biochemical. How it is done:
The almost identical reactivity compared with the L-form towards cytotoxic aldehydes, especially HNE and acrolein, was confirmed in a homogenous solution of HNE (10 μm) and acrolein (200 μm) in 10 mM phosphate buffer in molar ratios of the dipeptides amounting to 1:10 and 1:20. […]

The next data set has as its system Zucker rats. The data set is described as follows: Pharmacological effects of chronic treatment in Zucker rats. It is filed as in vivo. The source says:
In particular, D-carnosine is effective for the treatment or prevention of disorders involving highly reactive and cytotoxic carbonyl derivatives (HNE, acrolein, malonyldialdehyde, glyoxal and dimethylglyoxal), especially Alzheimer's disease, atherosclerosis, disorders secondary to diabetes, age-associated tissue degeneration such as sarcopenia, and correlated disorders. Forms designed for topical administration are particularly indicated for the latter.

Data set [5] is described as follows: Crossing of the blood-brain barrier (stated, no method).
The next data set addresses T1, carnosinases (Homo sapiens, UniProt Q96KN2).
T1 construct: host or cells: human serum
T1 sequence (Q96KN2 27-507 limits assumed): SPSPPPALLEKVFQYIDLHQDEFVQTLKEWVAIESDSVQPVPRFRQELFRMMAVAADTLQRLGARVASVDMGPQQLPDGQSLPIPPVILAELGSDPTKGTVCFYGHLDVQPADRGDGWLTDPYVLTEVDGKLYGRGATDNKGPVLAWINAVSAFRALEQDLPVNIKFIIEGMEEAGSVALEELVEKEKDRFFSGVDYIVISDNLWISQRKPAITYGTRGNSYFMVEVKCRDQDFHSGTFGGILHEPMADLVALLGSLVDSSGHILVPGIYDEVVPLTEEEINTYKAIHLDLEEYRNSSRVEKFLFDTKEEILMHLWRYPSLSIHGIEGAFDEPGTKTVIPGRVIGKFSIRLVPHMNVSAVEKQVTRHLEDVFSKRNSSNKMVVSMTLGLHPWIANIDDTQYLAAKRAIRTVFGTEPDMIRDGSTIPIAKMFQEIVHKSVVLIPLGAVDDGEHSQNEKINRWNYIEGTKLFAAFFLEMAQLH
Conditions: cited from earlier work.

The conditions of data set [6]: rat, in vivo, po, 570 mg/kg.
Description: as §1, §2
Setting [7] is: 30 mg/Kg with the diet water for 12 weeks.

SMILES strings stand for the structures. Where two headings read alike, the source gives them in different places.

Take `NCCC(=O)N[C@H](Cc1cnc[nH]1)C(=O)O` [D-carnosine]: in data set [1], the “Cmax reached at (time)” value was found to be 2 h, the “pharmacological levels maintained up to” value is given as “up to 8 hours” and the “time to disappear from the administration” value amounted to 24 h. For the same compound, in data set [2] (setting [7]), the level in plasma was 1240 ± 300 nM, the “level in the kidney” value was determined as 340.2±12.3 nmoles/gr wt tissue and the level in urine is reported as 6688±345 nmoles over 24 hrs. In addition, in data set [2] (30 mg/Kg, 12 weeks), the “increase of D-carnosine in respect to L-carnosine in plasma” value is given as 6 fold and the “increase of D-carnosine in respect to L-carnosine in urine as well as in the kidney” value was “more than a ten-fold increase”. The “stability in human plasma” value in [3] is given as “remained unchanged”. Besides, in data set [4], the “activity towards HNE compared with aminoguanidine and methoxyamine” value is “far more active towards HNE than aminoguanidine and methoxyamine”; the “reaction kinetics with HNE” value is recorded as “first-order profile”. Moreover, the “inhibited HNE” value in data set [4] (after 24 hours) was found to be 98.3%. The “inhibited HNE” value in data set [4] (after one hour's incubation) was found to be 49.2%. Moreover, the “pharmacological effects of chronic treatment” value in the data set on Zucker rats was “restrain: hypertriglyceridemia, hypercholesterolemia, hyperthenison, and carbonyl related disesases such as vascular dysfunction and nephropathy”. The blood-brain barrier crossing entry in data set [5] is on record as “able to cross the blood-brain barrier”.

For `NCCC(=O)N[C@@H](Cc1cnc[nH]1)C(=O)O` [L-carnosine, β-alanyl-L-histidine], the “stability in human plasma” value is listed as “undetectable”. Moreover, the “hydrolysis in human serum” value at carnosinases is reported as “rapidly hydrolysed”. Further, in data set [4] (after 24 hours), the “inhibited HNE” value stood at 96.4%. Besides, the “inhibited HNE” value in [4] (after one hour's incubation) stood at 44%. Moreover, the “time to disappear from the administration” value in data set [6] (Wistar) is ≤ 2 h. Also, the “Cmax (time at which reached)” value in data set [6] amounted to 60 min.
